# Assay results reported in the supplement of paper PMC8253809.
# Tests used:
# [1] = system: DIPGX29 (H3.3 K27M diffuse intrinsic pontine glioma line); assay: maximal growth inhibition (yFin) relative to DMSO / staurosporine; higher = more efficacious
# Summary of the method: (§1)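 A pin tool was used to add a 10-point threefold dilution series (mean top concentration 35 μM), in triplicate, to patient-derived pHGG/DIPG cell lines and astrocyte controls seeded on 384-well plates coated with 1% Geltrex. After 7 days at 37 °C and 5% CO2 (3 days for iAstro), CellTiter-Glo luminescence was log2-transformed, normalised on each plate to % activity relative to negative (solvent) and positive control wells, and pooled. EC50 and maximal response (yFin) were read from the three- or four-parameter log-logistic fit with the lowest AICc.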
# [2] = system: DIPGX37 (H3.3 K27M diffuse intrinsic pontine glioma line); assay: as above
# Summary of the method: as §1
# [3] = system: DIPGX7 (H3.3 K27M diffuse intrinsic pontine glioma line); assay: as above
# Summary of the method: as §1
# [4] = system: DIPGX9 (diffuse intrinsic pontine glioma line); assay: as above
# Summary of the method: as §1
# [5] = system: HABS (astrocyte control); assay: as above
# Summary of the method: as §1
# [6] = system: HGGX2 (paediatric high-grade glioma line); assay: as above
# Summary of the method: as §1
# [7] = system: HGGX39 (paediatric high-grade glioma line); assay: as above
# Summary of the method: as §1
# [8] = system: HGGX42 (H3.3 G34R paediatric high-grade glioma line); assay: as above
# Summary of the method: as §1
# [9] = system: HGGX6 (H3.3 G34R paediatric high-grade glioma line); assay: as above
# Summary of the method: as §1
# [10] = system: SUDIPGIV (diffuse intrinsic pontine glioma line); assay: as above
# Summary of the method: as §1
# [11] = system: SUDIPGVI (diffuse intrinsic pontine glioma line); assay: as above
# Summary of the method: as §1
# [12] = system: SUDIPGXIII (diffuse intrinsic pontine glioma line); assay: as above
# Summary of the method: as §1
# [13] = system: SUDIPGXIX (diffuse intrinsic pontine glioma line); assay: as above
# Summary of the method: as §1
# [14] = system: SUDIPGXVII (diffuse intrinsic pontine glioma line); assay: as above
# Summary of the method: as §1
# [15] = system: SUDIPGXXI (diffuse intrinsic pontine glioma line); assay: as above
# Summary of the method: as §1
# [16] = system: iAstro (astrocyte control); assay: as above
# Summary of the method: as §1
# [17] = system: HGGX42; assay: area under dose-response curve of % growth inhibition (log2 RLU vs DMSO / staurosporine), 1e-11 to 1e-4 M (% x log10 M); higher = more growth inhibition
# Summary of the method: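 A 10-point threefold dilution series, mean top concentration 35 μM, was applied in triplicate to patient-derived pHGG/DIPG lines and astrocytes on 1% Geltrex-coated 384-well plates for 7 days (3 days for iAstro) at 37 °C, 5% CO2. Per-plate % activity between solvent and positive controls was calculated from log2-transformed CellTiter-Glo luminescence. Area under the curve followed from the trapezoid rule on a log-logistic fit, or on a smoothing spline when the sigmoid fit failed.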
SMILES,maximal growth inhibition [1] [%],maximal growth inhibition [2] [%],maximal growth inhibition [3] [%],maximal growth inhibition [4] [%],maximal growth inhibition [5] [%],maximal growth inhibition [6] [%],maximal growth inhibition [7] [%],maximal growth inhibition [8] [%],maximal growth inhibition [9] [%],maximal growth inhibition [10] [%],maximal growth inhibition [11] [%],maximal growth inhibition [12] [%],maximal growth inhibition [13] [%],maximal growth inhibition [14] [%],maximal growth inhibition [15] [%],maximal growth inhibition [16] [%],area under dose-response curve [17]
COC(=O)[C@]12CCC(C)(C)C[C@H]1[C@H]1C(=O)C=C3[C@@]4(C)C=C(C#N)C(=O)C(C)(C)[C@@H]4CC[C@@]3(C)[C@]1(C)CC2 [BARDOXOLONE METHYL],87.1,88.6,112,107,105,104,92.1,111,86.8,122,96.1,97,124,109,103,96.5,203
CC(C)(C)OC(=O)Nc1ccc(-c2cc(C(=O)NCCCCCCC(=O)NO)no2)cc1 [BML-281],55.1,38.1,91.7,97.6,74.1,64,84,33.3,52.9,76,71.8,39,85.3,58.3,104,50,49
CC(=O)c1ccc2c(c1)c1cc(C(C)=O)ccc1n2CCNC(C)C [CBL-0137],94.2,101,99.2,106,74.4,83.4,104,91.8,88.7,96.8,92.3,96.5,98,97.5,113,23.8,154
O=C(Nc1ccc(Nc2nccc(Nc3cc(C4CCCC4)[nH]n3)n2)cc1)Nc1cccc(C(F)(F)F)c1 [CD532],94.4,98.2,112,115,122,111,104,102,87.6,112,111,103,112,100,109,95.2,271
NC1CCC(Nc2cc(-c3cccc(NCc4cccc(F)c4)n3)c(Cl)cn2)CC1 (stereo not drawn) [CDK9-IN-2],71.8,77.5,90.4,88.7,98.5,95.4,99.7,76.7,67.1,88.1,71.3,94.9,86.9,87,95.9,85.7,230
C[C@@H](Oc1cc(-c2cnn(C3CCNCC3)c2)cnc1N)c1c(Cl)ccc(F)c1Cl [CRIZOTINIB],104,102,104,101,90.9,97.4,92.8,102,88.6,98.4,94.1,92.3,99.6,96.4,119,87.3,117
COc1ccc(-c2nc(N3CCOCC3)c3sc(CN(C)c4ncc(C(=O)NO)cn4)cc3n2)cn1 [CUDC-907],106,119,97.5,108,129,103,112,105,102,113,98,109,119,107,122,73.6,315
CN1CCCN(C(=O)c2cccc(-c3ccc(/C=C4/C(=O)Nc5ccc(Cl)cc54)o3)c2)CC1 [CX-6258],112,109,110,108,112,108,110,106,106,107,108,104,110,110,106,102,184
COc1cccc2c1C(=O)c1c(O)c3c(c(O)c1C2=O)C[C@@](O)(C(=O)CO)C[C@@H]3O[C@H]1C[C@H](N)[C@H](O)[C@H](C)O1 [DOXORUBICIN],102,86.8,103,99.9,69.6,61.1,101,96.5,86.1,97.8,89.1,87.7,97.2,95.8,95.8,26.4,260
CCCCc1oc2ccc(NS(C)(=O)=O)cc2c1C(=O)c1ccc(OCCCN(CCCC)CCCC)cc1 [DRONEDARONE],104,99.7,120,123,119,116,106,119,93.4,122,121,117,123,122,127,104,165
CCOC(=O)CCNc1cc(N2CCc3ccccc3CC2)nc(-c2ccccn2)n1 [GSK-J4],69.6,56.1,46.7,94.2,72.9,100,63.1,100,62.6,61.5,44.1,48.1,98.3,55.2,112,69.4,87.1
O=C(c1ccc(Nc2nccc(-c3cc4ccccc4s3)n2)cc1)N1CCC(N2CCCC2)CC1 [IKK 16],117,120,108,122,124,104,119,107,106,115,104,114,128,118,120,94.4,187
CC(C)C[C@H](NC(=O)CNC(=O)c1cc(Cl)ccc1Cl)B(O)O [IXAZOMIB],77.5,79.9,81.4,82.6,84.1,86,84.7,70.6,79.4,89.4,73.9,77.3,88.1,81,86.4,67.4,234
"Cc1c(C2CCN(CCc3ccccc3)CC2)noc1-c1ccc(Cl)cc1 [L-741,742]",82.8,101,104,22.2,31.3,42.8,84,74.2,69.7,77.7,44.4,22.9,27.2,34.3,106,43.2,90.7
C[C@@]12OC(=O)[C@]1([C@@H](O)[C@@H]1C=CCCC1)NC(=O)[C@@H]2CCCl [MARIZOMIB],32.8,99.7,101,101,54.9,98.7,96.6,62.8,55.2,119,103,28.3,94.2,40.4,109,89.6,163
Nc1ccccc1NC(=O)c1ccc(CNc2nccc(-c3cccnc3)n2)cc1 [MOCETINOSTAT],78.5,96,104,103,94.6,96.5,96.8,78,84.8,104,97.2,74.1,100,93,126,38.2,115
O=C(Nc1ccc([N+](=O)[O-])cc1Cl)c1cc(Cl)ccc1O [NICOLSAMIDE],78.2,81.9,86,94,82.4,93.8,96.9,87.9,71.9,92.4,74.1,84.2,89,88.7,110,34.7,129
CCNC(=O)c1noc(-c2cc(C(C)C)c(O)cc2O)c1-c1ccc(CN2CCOCC2)cc1 [NVP-AUY922],80.4,82.2,48.5,84.4,86.9,49.9,80.3,34.4,29.6,55.9,35.2,61.3,76.3,63.9,115,51,147
CCCS(=O)(=O)c1nc(NC2CC2)cc(-c2ccc3c(ccn3C3CC(C)(C)NC(C)(C)C3)c2)n1 [NVS-1],82.2,79.6,95.1,88.9,86.9,86.7,82.8,88.2,79.3,90.5,88.4,88.4,90.7,88.4,104,83.2,185
COC1=CC(c2cc3ccccc3[nH]2)=N/C1=C\c1[nH]c(C)cc1C [OBATOCLAX],126,128,129,131,128,115,124,119,123,131,128,108,143,128,127,101,196
C[C@@H]1O[C@@H](O[C@H]2C[C@@H](O)[C@]3(CO)[C@H]4[C@H](O)C[C@]5(C)[C@@H](C6=CC(=O)OC6)CC[C@]5(O)[C@@H]4CC[C@]3(O)C2)[C@H](O)[C@H](O)[C@H]1O [OUABAIN],53.4,46.7,100,70.1,69.1,63.9,75.1,53.3,64.9,103,60.1,46.9,83.6,73.5,90.6,47.1,127
Cc1[nH]c2ccccc2c1CCNCc1ccc(/C=C/C(=O)NO)cc1 [PANOBINOSTAT],76.5,76.5,89,90.7,95.2,90,75.6,95.5,73.9,86.4,86.9,93.9,106,90.9,110,48,282
OC1(c2ccc(Cl)c(C(F)(F)F)c2)CCN(CCCC(c2ccc(F)cc2)c2ccc(F)cc2)CC1 [PENFLURIDOL],94.8,93.5,102,105,88.6,98.9,91,98.5,84.9,97.2,98.5,92.8,97.4,95.6,106,85.2,160
Cc1ccc(C(=O)Nc2ccc(CN3CCN(C)CC3)c(C(F)(F)F)c2)cc1C#Cc1cnc2cccnn12 [PONATINIB],104,101,101,94.2,103,99.6,99.3,99,97.4,100,97.8,96,99.8,101,97.2,95,164
